{"source": "patent US20250129054A1", "about": "(Terran Biosciences Inc., priority 2022, published 2025)", "assay": "Serial tail vein bleed PK study in SD rats: methylone measured in plasma after IV or oral methylone or oral methylone prodrugs", "format": "in vivo, Sprague Dawley rats", "details": "10 mg/kg, rat", "experimental": "A pharmacokinetic (PK) study was performed in three male Sprague-Dawley (SD) rats following intravenous (IV) and oral (PO) administration of methylone at 1 mg/kg (IV) and 10 mg/kg (PO) respectively, or test compounds (prodrugs of methylone) at 10 mg/kg (PO). Parent compound (methylone) was measured in plasma.\nSamples were sent for method optimization and measurement of parent compound (methylone) via unique calibration lines and following acceptance QC's. Dose formulation concentrations were also measured, and PK parameters were determined (Cmax (ng/mL), Tmax (hr), Cl (ml/min/kg), Vdss (L/kg), t½(hr), AUC0-t (ng/mL*hr), AUC0-inf (ng/mL*hr), MIRT (hr), Bioavailability ([…]) where warranted) using WinNon Lin software. Data (including bioanalytical results and assay performance) were reported in a tabulated format.\nFormulation for PO Administration: For PO dosing, the prodrug was formulated in 10% DMSO/20% PEG400/70% water to a concentration of 2 mg free metabolite material/mL. This provided a dose of 10 mg free metabolite/kg when the prodrug was administered PO in 5 mL/kg dosing volumes.\nFormulation for IV administration: For IV dosing, rac-methylone was formulated as solution in saline to a concentration of 0.5 mg free metabolite material/mL. This provided a dose of 1 mg free metabolite/kg when administered IV in 2 mL/kg dosing volumes.\nThe pharmacokinetic properties of the synthesized methylone prodrugs after oral administration in a rat model were assessed. The concentration of methylone was measured in each rat at various sampling timepoints after IV or oral administration of rac-methylone or the synthesized methylone prodrugs to rats.\nDose formulations were made at equivalent concentrations of active compound (methylone) adjusted for molecular weight of the compounds. The synthesized methylone prodrugs or analogs were dosed at 10 mg/kg oral (PO) nominal dose. Nominal doses were used in PK parameter determinations. The parent compound (methylone) was dosed at 1 mg/kg intravenous (IV) and 10 mg/kg (PO).", "key": {"[1]": {"details": "0.500 h after oral dosing of the prodrug, individual animals"}, "[2]": {"details": "0.500 h after oral dosing of the prodrug, mean"}, "[3]": {"details": "1.00 h after oral dosing of the prodrug, individual animals"}, "[4]": {"details": "1.00 h after oral dosing of the prodrug, mean"}, "[5]": {"details": "2.00 h after oral dosing of the prodrug, individual animals"}, "[6]": {"details": "2.00 h after oral dosing of the prodrug, mean"}, "[7]": {"details": "4.00 h after oral dosing of the prodrug, individual animals"}, "[8]": {"details": "4.00 h after oral dosing of the prodrug, mean"}, "[9]": {"details": "7.00 h after oral dosing of the prodrug, individual animals"}, "[10]": {"details": "7.00 h after oral dosing of the prodrug, mean"}, "[11]": {"details": "24.0 h after oral dosing of the prodrug, individual animals"}, "[12]": {"details": "24.0 h after oral dosing of the prodrug, mean"}}, "data": [{"smiles": "CC(C(=O)c1ccc2c(c1)OCO2)N(C)C(=O)CCCC(=O)O", "note": "(stereo not drawn) [Compound 8D, 4-{[2-(2H-1,3-Benzodioxol-5-yl)-1-methyl-2-oxo-ethyl]-N-methylcarbamoyl}butyric acid]", "values": [{"measurement": "Plasma Concentrations of metabolite methylone", "setting": "[1]", "value": "BLQ (Below Lower Limit of Quantification (0.5 ng/mL))"}, {"measurement": "Plasma Concentrations of metabolite methylone", "setting": "[2]", "value": "BLQ (Below Lower Limit of Quantification (0.5 ng/mL))"}, {"measurement": "Plasma Concentrations of metabolite methylone", "setting": "[3]", "value": "BLQ (Below Lower Limit of Quantification (0.5 ng/mL))"}, {"measurement": "Plasma Concentrations of metabolite methylone", "setting": "[4]", "value": "BLQ (Below Lower Limit of Quantification (0.5 ng/mL))"}, {"measurement": "Plasma Concentrations of metabolite methylone", "setting": "[5]", "value": "BLQ (Below Lower Limit of Quantification (0.5 ng/mL))"}, {"measurement": "Plasma Concentrations of metabolite methylone", "setting": "[6]", "value": "BLQ (Below Lower Limit of Quantification (0.5 ng/mL))"}, {"measurement": "Plasma Concentrations of metabolite methylone", "setting": "[7]", "value": "BLQ (Below Lower Limit of Quantification (0.5 ng/mL))"}, {"measurement": "Plasma Concentrations of metabolite methylone", "setting": "[8]", "value": "BLQ (Below Lower Limit of Quantification (0.5 ng/mL))"}, {"measurement": "Plasma Concentrations of metabolite methylone", "setting": "[9]", "value": "BLQ (Below Lower Limit of Quantification (0.5 ng/mL))"}, {"measurement": "Plasma Concentrations of metabolite methylone", "setting": "[10]", "value": "BLQ (Below Lower Limit of Quantification (0.5 ng/mL))"}, {"measurement": "Plasma Concentrations of metabolite methylone", "setting": "[11]", "value": "BLQ (Below Lower Limit of Quantification (0.5 ng/mL))"}, {"measurement": "Plasma Concentrations of metabolite methylone", "setting": "[12]", "value": "BLQ (Below Lower Limit of Quantification (0.5 ng/mL))"}]}, {"smiles": "CC(C(=O)c1ccc2c(c1)OCO2)N(C)C(=O)N1CCC(N2CCCCC2)CC1", "note": "(stereo not drawn) [Compound 9A, N-[2-(1,3-Benzodioxol-5-yl)-1-methyl-2-oxo-ethyl]-N-methyl-4-(1-piperidyl)piperidine-1-carboxamide]", "values": [{"measurement": "Plasma Concentrations of metabolite methylone", "setting": "[1]", "value": "BLQ (Below Lower Limit of Quantification (0.5 ng/mL))"}, {"measurement": "Plasma Concentrations of metabolite methylone", "setting": "[2]", "value": "BLQ (Below Lower Limit of Quantification (0.5 ng/mL))"}, {"measurement": "Plasma Concentrations of metabolite methylone", "setting": "[3]", "value": "BLQ (Below Lower Limit of Quantification (0.5 ng/mL))"}, {"measurement": "Plasma Concentrations of metabolite methylone", "setting": "[4]", "value": "BLQ (Below Lower Limit of Quantification (0.5 ng/mL))"}, {"measurement": "Plasma Concentrations of metabolite methylone", "setting": "[5]", "value": "BLQ (Below Lower Limit of Quantification (0.5 ng/mL))"}, {"measurement": "Plasma Concentrations of metabolite methylone", "setting": "[6]", "value": "BLQ (Below Lower Limit of Quantification (0.5 ng/mL))"}, {"measurement": "Plasma Concentrations of metabolite methylone", "setting": "[7]", "value": "BLQ (Below Lower Limit of Quantification (0.5 ng/mL))"}, {"measurement": "Plasma Concentrations of metabolite methylone", "setting": "[8]", "value": "BLQ (Below Lower Limit of Quantification (0.5 ng/mL))"}, {"measurement": "Plasma Concentrations of metabolite methylone", "setting": "[9]", "value": "BLQ (Below Lower Limit of Quantification (0.5 ng/mL))"}, {"measurement": "Plasma Concentrations of metabolite methylone", "setting": "[10]", "value": "BLQ (Below Lower Limit of Quantification (0.5 ng/mL))"}, {"measurement": "Plasma Concentrations of metabolite methylone", "setting": "[11]", "value": "BLQ (Below Lower Limit of Quantification (0.5 ng/mL))"}, {"measurement": "Plasma Concentrations of metabolite methylone", "setting": "[12]", "value": "BLQ (Below Lower Limit of Quantification (0.5 ng/mL))"}]}]}
